For 29 compounds, absorption maximum results are on record in the Deep4Chem optical property database.

The nature of the data set: solvent given as SMILES.

The compound `Cc1ccc(/C=C/c2ccccc2-[n+]2noc([O-])c2-c2ccccc2)cc1` came in with an absorption maximum (in C1CCCCC1) of 316 nm, an absorption maximum (in CC#N) of 313 nm and an absorption maximum (in CCO) of 315 nm.
In turn, `COc1ccc(C2CC(c3ccc(O)cc3)=NN2c2ccc(S(N)(=O)=O)cc2)cc1` (centres undefined) yielded an absorption maximum (in C1CCOC1) of 359 nm; an absorption maximum (in C1COCCO1) of 360 nm; an absorption maximum (in CC#N) of 358 nm; an absorption maximum (in CC(C)O) of 358 nm; an absorption maximum (in CCO) of 358 nm; an absorption maximum (in CCOC(C)=O) of 358 nm. Further, the absorption maximum reads like this: (in CN(C)C=O) 361 nm; (in CO) 357 nm; (in CS(C)=O) 364 nm; (in O) 360 nm.
Consider `CC(C)[Si]1(C(C)C)c2cc(C=C(C#N)C#N)ccc2-c2ccc(N(C)C)cc21`, for which the absorption maximum turned out to be 480 nm (in C1CCCCC1); 475 nm (in CC#N); 478 nm (in CCO); 469 nm (in CCOCC); 488 nm (in CS(C)=O); 489 nm (in ClCCl). The compound also had an absorption maximum (in c1ccccc1) of 480 nm.
The compound `COCCOc1cc(C=O)c(OCCOC)cc1C=O` came in with an absorption maximum (in CC(C)(C)O) of 393 nm; an absorption maximum (in CC(C)CO) of 391 nm; an absorption maximum (in CC(C)O) of 390 nm; an absorption maximum (in CCCCO) of 363 nm; an absorption maximum (in CCCO) of 363 nm; an absorption maximum (in CCO) of 362 nm. The absorption maximum (in CN(C)C=O) is given as 392 nm; the absorption maximum (in CNC=O) worked out at 351 nm; the absorption maximum (in CO) was 353 nm; the absorption maximum (in NC=O) turned out to be 354 nm; the absorption maximum (in O) came to 391 nm.
Take `F[B-]1(F)Oc2ccc3ccccc3c2-c2c3c(c4c([n+]21)CCc1ccccc1-4)CCc1ccccc1-3`: the absorption maximum (in ClCCl) amounted to 346 nm.
Turning to `O=[N+]([O-])c1ccc(F)cc1C1CC(c2cccc3ccccc23)=NN1c1ccccc1` (centres undefined), the absorption maximum is 365 nm (in C1CCCCC1); 374 nm (in C1CCOC1); 372 nm (in C1COCCO1); 367 nm (in CC#N); 370 nm (in CC(C)O); 371 nm (in CCOC(C)=O). Moreover, the absorption maximum is, setting by setting: (in CCOCC) 363 nm; (in CO) 372 nm; (in Cc1ccccc1) 368 nm; (in ClC(Cl)Cl) 363 nm; (in O) 375 nm.
Turning to `CCN(CC)c1ccc(/N=N/c2nc3ccc([N+](=O)[O-])cc3s2)cc1`, the absorption maximum by setting is: (in CC#N) 546 nm; (in ClCCl) 549 nm.
For `CC1(C)CC(NCc2ccc3ccc4cccc5ccc2c3c45)CC(C)(C)N1[O]`, the absorption maximum by setting is: (in C1CCCCC1) 342 nm; (in CC#N) 341 nm; (in CO) 340 nm; (in ClC(Cl)Cl) 344 nm.
Take `Nc1cc2nc3cc(F)c(F)cc3nc2cc1N`: the absorption maximum (in CCO) came out at 433 nm.
For `CN(C)c1ccc(N2c3sc4ccccc4c3Sc3sc4ccccc4c32)cc1`, for the setting “in ClCCl”, the absorption maximum is listed as 319 nm.
Where the note is “in ClCCl”, `COc1cc(OC)cc(C2=[O+][B-](F)(F)OC(c3cccs3)=C2)c1` gave an absorption maximum of 391 nm.
The compound `CCCC1(CCC)c2ccccc2-c2ccc(-c3ccc4c(c3)C(CCC)(CCC)c3cc(-c5ccc6c(c5)C(CCC)(CCC)c5cc(-c7ccc8c(c7)C(CCC)(CCC)c7ccccc7-8)ccc5-6)ccc3-4)cc21` had an absorption maximum (in C1CCCCC1) of 360 nm.
As to `CC(=O)c1ccc(-c2ccc3c(c2)C(=O)c2cc(-c4ccc(C(C)=O)cc4)ccc2-3)cc1`, the absorption maximum (in C1CCOC1) stood at 343 nm.
Take `CC1(C)C(/C=C/C2=C(Cl)C(=C/C=C3/N(Cc4ccc(C(=O)O)cc4)c4ccccc4C3(C)C)/CCC2)=[N+](Cc2ccc(C(=O)O)cc2)c2ccccc21`: for the setting “in CO”, the absorption maximum is given as 786 nm.
As to `CN(C)c1ccc2nc(/C=C/c3ccccc3)c(=O)oc2c1`, the absorption maximum reads like this: (in C1CCCCC1) 438.5 nm; (in C1COCCO1) 453 nm; (in CC#N) 463 nm; (in CC(C)=O) 462 nm; (in CCCCCCC) 436 nm; (in CCO) 466 nm. Moreover, the absorption maximum stood at 457 nm (in CCOC(C)=O); 469 nm (in CN(C)C=O); 475 nm (in CS(C)=O); 459.5 nm (in Cc1ccccc1); 467 nm (in ClC(Cl)Cl); 467.5 nm (in ClCCl).
As to `CCCCCCN1C(=O)c2cccc3c(-c4scc5c4OCCO5)ccc(c23)C1=O`, the absorption maximum (in ClC(Cl)Cl) was 390 nm.
The compound `CN(C)c1ccc(C2=Nc3ccc4c(C(F)(F)F)cc(C(F)(F)F)nc4[n+]3[B-](F)(F)O2)cc1` displayed an absorption maximum (in ClCCl) of 480 nm.
As for `CCCCCCCCOc1ccc(C2=C3C(C)=CC(C)=[N+]3[B-](F)(F)n3c(C)cc(C)c32)cc1`, the absorption maximum (in ClCCl) amounted to 500 nm.
The compound `Cc1cc(C)c(B2c3cc(C(C)(C)C)cc4ccc5c6ccccc6c6cc(C(C)(C)C)cc2c6c5c34)c(C)c1` gave an absorption maximum (in C1CCCCC1) of 424 nm.
Consider `CC(C)[Si](C#Cc1cc2c3c(c1)c(=C(c1ccccc1)c1ccccc1)c1cc(C#C[Si](C(C)C)(C(C)C)C(C)C)cc4c1N3c1c(cc(C#C[Si](C(C)C)(C(C)C)C(C)C)cc1c4=C(c1ccccc1)c1ccccc1)c2=C(c1ccccc1)c1ccccc1)(C(C)C)C(C)C`, for which the absorption maximum (in ClCCl) is recorded as 404 nm.
For the compound `CCN1CCN(c2ccc(/N=N/c3cc([N+](=O)[O-])cc([N+](=O)[O-])c3)cc2)CC1`, the absorption maximum (in CCOC(C)=O) is 454 nm.
`CCCCCOc1cc2oc(=O)c3c4ccc(N(c5ccc(C)cc5)c5ccc(C)cc5)cc4c4ccc5cccc6c(c1)c2c3c4c56` had an absorption maximum (in C1CCOC1) of 487 nm.
For `CCCCC(CC)Cn1c2ccc(C(=C(C#N)C#N)c3ccccc3)cc2c2c(-c3ccc(Br)cc3)c3c(c(-c4ccc(Br)cc4)c21)c1cc(C(=C(C#N)C#N)c2ccccc2)ccc1n3CC(CC)CCCC` (centres undefined), the absorption maximum came to 460 nm (in C1CCOC1); 462 nm (in CC#N); 464 nm (in CCO); 457 nm (in CCOC(C)=O); 467 nm (in CN(C)C=O); 471 nm (in ClCCl). Besides, the absorption maximum (in c1ccccc1) is on record as 458 nm.
`O=S1(=O)c2ccc(-c3ccc(N(c4ccccc4)c4ccccc4)cc3)cc2C2(c3ccccc3-c3ccccc32)c2cc(-c3ccc(N(c4ccccc4)c4ccccc4)cc3)ccc21`: the absorption maximum (in ClCCl) was 363 nm.
With `Nc1cccc2ncccc12`, the absorption maximum reads like this: (in CC#N) 340 nm; (in O) 333 nm.
Where the note is “in C1CCOC1”, `COc1ccc2c(c1)c1ccc3cccc4c5cccc6oc(=O)c2c(c65)c1c34` displayed an absorption maximum of 425 nm.
As to `CCOC(=O)c1c(-c2cc3ccccc3oc2=O)nn(-c2ccc(OC)cc2)c1C(=O)OCC`, for the setting “in ClCCl”, the absorption maximum is reported as 323 nm.
For the compound `c1ccc(-n2cccc2)cc1`, the absorption maximum worked out at 252 nm (in CC#N) and 254 nm (in CCCCCC).
In the case of `COc1ccc2c3ccc(OC)cc3n(-c3ccc(-c4nnc(C)o4)cc3)c2c1`, where the note is “in Cc1ccccc1”, the absorption maximum was 319 nm.
